Patent US11571421B2, “GABAA positive allosteric modulator compounds for treatment of itch and/or dermatitis” (NeuroCycle Therapeutics, Inc., priority 2018, dated 2023)
Where “and” joins values, the source holds several entries; their conditions need not be identical. Equal values may be shown once.

Tested on: Chloroquine (CQ)-Induced Itch Model in Male C57BL/6 Mice
Assay: Chloroquine Induced Itch Model, AZD7325 (Example 2)
Format: in vivo
Description: Other GABAA positive allosteric modulators are predicted to have similar effects on pruritic conditions and dermatitis as PF-06372865. […] In this study, the efficacy of AZD7325 was evaluated in the Chloroquine Induced Itch Model in Male C57BL/6 Mice. […]
AZD7325 was weighed into a clean glass container. A 5% 2-hydroxypropyl-β-cyclodextrin was added and the resulting mixture was mixed well using mild vortexing and sonicated for 15-20 minutes to provide a homogeneous suspension.
21 mg of chloroquine phosphate was weighed in a clean glass container. 5.2 mL PBS was added, and the resulting mixture was mixed well using mild vortexing to form the desired strength solution.
The right-side cheek area of all the animals was shaved with animal clippers 1 day prior to the experiment. Animals were randomized into different treatment groups based on body weight to avoid variability in weights across groups one day prior to experiment. Reference formulations and chloroquine phosphate solution were prepared on the day of the experiment.
Animals were dosed per oral with respective treatment group using a dose volume of 10 ml/kg. Times of dosing were recorded. Immediately after compound treatment, animals were kept in a empty transparent chamber (23 cm length×17 cm width) for acclimatization and observation.
Ninety (90) minutes post compound dosing, 50-μl of chloroquine phosphate solution (a 200-μg dose) was injected intracutaneously into the animal's right cheek. Animals were returned to the same chamber for observation. Animals were observed by an observer blind to the treatment group for a period of 30 minutes post chloroquine injection. Total number of bouts of scratching directed at the ipsilateral cheek were recorded for 30 minutes.

[1] = 0.3 mg/kg PO, individual animals
[2] = 10 mg/kg PO, individual animals
[3] = 30 mg/kg PO, individual animals

Structure (SMILES): CCCNC(=O)c1nnc2c(-c3c(F)cccc3OC)cccc2c1N [AZD7325]
- Scratching bouts (Nos.) In 30 min, 0-5 min (0.3 mg/kg PO, MEAN, N=6): 1.17 Nos.
- Scratching bouts (Nos.) In 30 min, 5-10 min (0.3 mg/kg PO, MEAN, N=6): 11.00 Nos.
- Scratching bouts (Nos.) In 30 min, 10-15 min (0.3 mg/kg PO, MEAN, N=6): 17.17 Nos.
- Scratching bouts (Nos.) In 30 min, 15-20 min (0.3 mg/kg PO, MEAN, N=6): 24.00 Nos.
- Scratching bouts (Nos.) In 30 min, 20-25min (0.3 mg/kg PO, MEAN, N=6): 16.83 Nos.
- Scratching bouts (Nos.) In 30 min, 25-30 min (0.3 mg/kg PO, MEAN, N=6): 24.00 Nos.
- Total Scratching bouts (0.3 mg/kg PO, MEAN, N=6): 94.17 (Nos.)/30 min
- Scratching bouts (Nos.) In 30 min, 0-5 min [1]: 0 Nos. (4×) and 5 Nos. and 2 Nos.
- Scratching bouts (Nos.) In 30 min, 5-10 min [1]: 17 Nos. and 0 Nos. (2×) and 9 Nos. and 24 Nos. and 16 Nos.
- Scratching bouts (Nos.) In 30 min, 10-15 min [1]: 22 Nos. and 25 Nos. and 10 Nos. and 15 Nos. and 1 Nos. and 30 Nos.
- Scratching bouts (Nos.) In 30 min, 15-20 min [1]: 45 Nos. and 30 Nos. and 0 Nos. and 14 Nos. and 28 Nos. and 27 Nos.
- Scratching bouts (Nos.) In 30 min, 20-25min [1]: 11 Nos. and 28 Nos. and 18 Nos. and 29 Nos. and 15 Nos. and 0 Nos.
- Scratching bouts (Nos.) In 30 min, 25-30 min [1]: 21 Nos. and 15 Nos. (2×) and 31 Nos. and 23 Nos. and 39 Nos.
- Total Scratching bouts [1]: 116 (Nos.)/30 min and 98 (Nos.)/30 min and 73 (Nos.)/30 min and 105 (Nos.)/30 min and 61 (Nos.)/30 min and 112 (Nos.)/30 min
- Scratching bouts (Nos.) In 30 min, 0-5 min (1 mg/kg PO, MEAN, N=6): 2.00 Nos.
- Scratching bouts (Nos.) In 30 min, 5-10 min (1 mg/kg PO, MEAN, N=6): 10.33 Nos.
- Scratching bouts (Nos.) In 30 min, 10-15 min (1 mg/kg PO, MEAN, N=6): 15.67 Nos.
- Scratching bouts (Nos.) In 30 min, 15-20 min (1 mg/kg PO, MEAN, N=6): 22.33 Nos.
- Scratching bouts (Nos.) In 30 min, 20-25min (1 mg/kg PO, MEAN, N=6): 19.17 Nos.
- Scratching bouts (Nos.) In 30 min, 25-30 min (1 mg/kg PO, MEAN, N=6): 14.33 Nos.
- Total Scratching bouts (1 mg/kg PO, MEAN, N=6): 83.83 (Nos.)/30 min
- Scratching bouts (Nos.) In 30 min, 0-5 min (1 mg/kg PO, individual animals): 0 Nos. (2×) and 2 Nos. and 3 Nos. and 6 Nos. and 1 Nos.
- Scratching bouts (Nos.) In 30 min, 5-10 min (1 mg/kg PO, individual animals): 1 Nos. and 7 Nos. and 18 Nos. and 36 Nos. and 0 Nos. (2×)
- Scratching bouts (Nos.) In 30 min, 10-15 min (1 mg/kg PO, individual animals): 0 Nos. and 15 Nos. and 26 Nos. and 8 Nos. and 21 Nos. and 24 Nos.
- Scratching bouts (Nos.) In 30 min, 15-20 min (1 mg/kg PO, individual animals): 30 Nos. and 24 Nos. and 14 Nos. and 7 Nos. and 44 Nos. and 15 Nos.
- Scratching bouts (Nos.) In 30 min, 20-25min (1 mg/kg PO, individual animals): 48 Nos. and 38 Nos. and 7 Nos. and 10 Nos. and 12 Nos. and 0 Nos.
- Scratching bouts (Nos.) In 30 min, 25-30 min (1 mg/kg PO, individual animals): 0 Nos. and 9 Nos. and 17 Nos. and 4 Nos. and 30 Nos. and 26 Nos.
- Total Scratching bouts (1 mg/kg PO, individual animals): 79 (Nos.)/30 min and 95 (Nos.)/30 min and 85 (Nos.)/30 min and 65 (Nos.)/30 min and 113 (Nos.)/30 min and 66 (Nos.)/30 min
- Scratching bouts (Nos.) In 30 min, 0-5 min (3 mg/kg PO, MEAN, N=6): 1.50 Nos.
- Scratching bouts (Nos.) In 30 min, 5-10 min (3 mg/kg PO, MEAN, N=6): 7.50 Nos.
- Scratching bouts (Nos.) In 30 min, 10-15 min (3 mg/kg PO, MEAN, N=6): 16.33 Nos.
- Scratching bouts (Nos.) In 30 min, 15-20 min (3 mg/kg PO, MEAN, N=6): 17.17 Nos.
- Scratching bouts (Nos.) In 30 min, 20-25min (3 mg/kg PO, MEAN, N=6): 13.33 Nos.
- Scratching bouts (Nos.) In 30 min, 25-30 min (3 mg/kg PO, MEAN, N=6): 11.33 Nos.
- Total Scratching bouts (3 mg/kg PO, MEAN, N=6): 67.17 (Nos.)/30 min
- Scratching bouts (Nos.) In 30 min, 0-5 min (3 mg/kg PO, individual animals): 3 Nos. and 0 Nos. (4×) and 6 Nos.
- Scratching bouts (Nos.) In 30 min, 5-10 min (3 mg/kg PO, individual animals): 0 Nos. (3×) and 31 Nos. and 12 Nos. and 2 Nos.
- Scratching bouts (Nos.) In 30 min, 10-15 min (3 mg/kg PO, individual animals): 20 Nos. and 22 Nos. and 17 Nos. and 9 Nos. and 14 Nos. and 16 Nos.
- Scratching bouts (Nos.) In 30 min, 15-20 min (3 mg/kg PO, individual animals): 18 Nos. and 5 Nos. and 35 Nos. and 26 Nos. and 19 Nos. and 0 Nos.
- Scratching bouts (Nos.) In 30 min, 20-25min (3 mg/kg PO, individual animals): 2 Nos. and 32 Nos. and 22 Nos. and 6 Nos. and 10 Nos. and 8 Nos.
- Scratching bouts (Nos.) In 30 min, 25-30 min (3 mg/kg PO, individual animals): 8 Nos. (2×) and 19 Nos. and 11 Nos. and 20 Nos. and 2 Nos.
- Total Scratching bouts (3 mg/kg PO, individual animals): 51 (Nos.)/30 min and 78 (Nos.)/30 min and 119 (Nos.)/30 min and 64 (Nos.)/30 min and 63 (Nos.)/30 min and 28 (Nos.)/30 min
- Scratching bouts (Nos.) In 30 min, 0-5 min (10 mg/kg PO, MEAN, N=6): 0.50 Nos.
- Scratching bouts (Nos.) In 30 min, 5-10 min (10 mg/kg PO, MEAN, N=6): 6.17 Nos.
- Scratching bouts (Nos.) In 30 min, 10-15 min (10 mg/kg PO, MEAN, N=6): 15.17 Nos.
- Scratching bouts (Nos.) In 30 min, 15-20 min (10 mg/kg PO, MEAN, N=6): 12.50 Nos.
- Scratching bouts (Nos.) In 30 min, 20-25min (10 mg/kg PO, MEAN, N=6): 13.67 Nos.
- Scratching bouts (Nos.) In 30 min, 25-30 min (10 mg/kg PO, MEAN, N=6): 15.17 Nos.
- Total Scratching bouts (10 mg/kg PO, MEAN, N=6): 63.17 (Nos.)/30 min
- Scratching bouts (Nos.) In 30 min, 0-5 min [2]: 0 Nos. (4×) and 1 Nos. and 2 Nos.
- Scratching bouts (Nos.) In 30 min, 5-10 min [2]: 7 Nos. (2×) and 0 Nos. (2×) and 22 Nos. and 1 Nos.
- Scratching bouts (Nos.) In 30 min, 10-15 min [2]: 41 Nos. and 11 Nos. and 7 Nos. and 19 Nos. and 0 Nos. and 13 Nos.
- Scratching bouts (Nos.) In 30 min, 15-20 min [2]: 9 Nos. and 0 Nos. (2×) and 22 Nos. and 25 Nos. and 19 Nos.
- Scratching bouts (Nos.) In 30 min, 20-25min [2]: 0 Nos. (2×) and 10 Nos. and 20 Nos. and 19 Nos. and 33 Nos.
- Scratching bouts (Nos.) In 30 min, 25-30 min [2]: 23 Nos. and 37 Nos. and 24 Nos. and 0 Nos. (2×) and 7 Nos.
- Total Scratching bouts [2]: 80 (Nos.)/30 min and 65 (Nos.)/30 min and 73 (Nos.)/30 min and 85 (Nos.)/30 min and 61 (Nos.)/30 min and 15 (Nos.)/30 min
- Scratching bouts (Nos.) In 30 min, 0-5 min (30 mg/kg PO, MEAN, N=6): 5.17 Nos.
- Scratching bouts (Nos.) In 30 min, 5-10 min (30 mg/kg PO, MEAN, N=6): 11.67 Nos.
- Scratching bouts (Nos.) In 30 min, 10-15 min (30 mg/kg PO, MEAN, N=6): 7.17 Nos.
- Scratching bouts (Nos.) In 30 min, 15-20 min (30 mg/kg PO, MEAN, N=6): 18.33 Nos.
- Scratching bouts (Nos.) In 30 min, 20-25min (30 mg/kg PO, MEAN, N=6): 6.17 Nos.
- Scratching bouts (Nos.) In 30 min, 25-30 min (30 mg/kg PO, MEAN, N=6): 2.83 Nos.
- Total Scratching bouts (30 mg/kg PO, MEAN, N=6): 51.33 (Nos.)/30 min
- Scratching bouts (Nos.) In 30 min, 0-5 min [3]: 0 Nos. (3×) and 1 Nos. and 20 Nos. and 10 Nos.
- Scratching bouts (Nos.) In 30 min, 5-10 min [3]: 9 Nos. and 15 Nos. and 0 Nos. (2×) and 1 Nos. and 45 Nos.
- Scratching bouts (Nos.) In 30 min, 10-15 min [3]: 8 Nos. and 1 Nos. and 22 Nos. and 3 Nos. and 9 Nos. and 0 Nos.
- Scratching bouts (Nos.) In 30 min, 15-20 min [3]: 29 Nos. and 0 Nos. and 11 Nos. and 10 Nos. and 47 Nos. and 13 Nos.
- Scratching bouts (Nos.) In 30 min, 20-25min [3]: 5 Nos. and 0 Nos. (3×) and 16 Nos. (2×)
- Scratching bouts (Nos.) In 30 min, 25-30 min [3]: 0 Nos. (4×) and 12 Nos. and 5 Nos.
- Total Scratching bouts [3]: 51 (Nos.)/30 min and 29 (Nos.)/30 min and 69 (Nos.)/30 min and 18 (Nos.)/30 min and 57 (Nos.)/30 min and 84 (Nos.)/30 min
- scratching bouts compared to vehicle treatment, significance (at 1, 3, 10 and 30 mg/kg doses): Statistically significant decrease
- total number of scratching bouts, dose response (quantified for 30 minutes post CQ injection, 0.3-30 mg/kg PO): dose dependent decrease
